Experiments:
SkBr3 cells [1] = test: Clonogenic assay, adherent; type: cell-based, human; conditions: MitoQ 100 nM, 48 h
Description: (§1) For adherent assays, MDA-MB-231 and SKBR3 cells were pre-treated for 48 h±MitoQ, and seeded (1,000 to 2,000 cells/well) in 6-well plates. After colony formation (2 weeks), cells were fixed and stained with 0.5% crystal violet in a 10% ethanol solution, for 30 min. Colonies were washed with water and counted. Results are expressed as surviving fraction (SF), where […].

MDA-MB-231 cells [2] = test: Clonogenic assay, adherent; type: cell-based, human; conditions: MitoQ 100 nM, 48 h
Description: as §1

[3] = test system: MDA-MB-231 human breast cancer cells; test: Seahorse oximetry, oxygen consumption rates (OCRs); type: cell-based; conditions: MitoQ 100 nM, 48 h
Description: Oxygen consumption rates (OCRs) were determined on a Seahorse XF96 bioenergetic analyzer using the XF cell Mito stress kit (Agilent Technologies®), according to manufacturer's recommendations. Briefly, MDA-MB-231 (10^4 cells/well), SkBr3 (10^4 cells/well), MDA-MB-436 (10^4 cells/well) or MCF10A (10^5 cells/well) were plated on XF96 culture plates 16 h before experiments in DMEM containing 10% FBS, and treated ±MitoQ for 48 h. On the day of analysis, culture media were replaced by DMEM containing 10 mM glucose, 2 mM glutamine, 1.85 g/L NaCl, 3 mg/L phenol red, pH 7.4. Cells were incubated for 1 h in a CO2-free incubator before analysis. Sequentially, basal OCR was acquired without treatment; ATP-linked OCR after the addition of 1 μM of ATP synthase inhibitor oligomycin; maximal OCR after mitochondrial potential disruption using 1 μM of ionophore carbonyl cyanide-4-(trifluoromethoxy) phenylhydrazone (FCCP); and non-mitochondrial OCR after the addition of 0.5 μM of Complex I inhibitor rotenone together with 0.5 μM of Complex III inhibitor antimycin A. All data were normalized by total protein content (Bio-Rad® Protein Assay; catalogue #5000006) measured right after oximetry. Mitochondrial OCRs (mtOCRs) were calculated by subtracting non-mitochondrial OCRs to the corresponding basal, maximal and ATP-linked OCRs.

SkBr3 cells [4] = test: Clonogenic assay on soft agar; type: cell-based, human; conditions: MitoQ 250 nM
Description: (§2) For soft agar colony formation assays, 0.4% Seaplaque soft agar (Lonza®) was diluted with DMEM containing 10% FBS and was covered by a second 0.3% soft agar layer in which 500 MDA-MB-231 or SKBR3 cells were embedded. Complete DMEM Culture media ±MitoQ was added with 2× the final concentration. After 20 days, colonies were counted using an Axiovert™ 40 CFL microscope equipped with a MRC camera.

MDA-MB-231 cells [5] = test: Clonogenic assay on soft agar; type: cell-based, human; conditions: MitoQ 250 nM
Description: as §2

SkBr3 cells [6] = test: Cell numbers, chemotherapy ±MitoQ, crystal violet; type: cell-based, human; conditions: increasing doses of chemotherapy ±100 nM MitoQ; 24-72 h
Description: (§3) To test the effects of combination treatments on cell numbers, MDA-MB-231 or SkBr3 cancer cells were plated in 96-well plates and treated with increasing concentrations of chemotherapeutic drug ±MitoQ for 24 h (epirubicin), 48 h (doxorubicin, 5-FU, cisplatin, paclitaxel) or 72 h (gemcitabine). Cells were then fixed in 11% glutaraldehyde and stained with crystal violet. The dye retained by the cells was solubilized in 10% acetic acid, and the optical density (570 nm) was measured using a SpectraMax i3 spectrophotometer equipped with a MiniMax™ imaging cytometer.

MDA-MB-231 cells [7] = test: Cell numbers, chemotherapy ±MitoQ, crystal violet; type: cell-based, human; conditions: increasing doses of chemotherapy ±100 nM MitoQ; 24-72 h
Description: as §3

MDA-MB-436 cells = test: Cell invasion, Boyden chamber; type: cell-based, human; conditions: MitoQ 100 nM, 48 h
Description: (§4) Cell chemotaxis was assayed in a 48-well micro-chemotaxis chamber (Neuroprobe® AP48) with polycarbonate porous membrane (8-μm diameter, Neuroprobe® PFB8) coated with 5 μg/mL of fibronectin, according to manufacturer's instructions. Briefly, MDA-MB-231 (20,000 cells/well), SkBr3 (40,000 cells/well) or MDA-MB-436 (80,000 cells/well) cells were seeded in the upper compartment in culture media deprived of FBS, and 0.2% (v/v) FBS-containing medium (for MDA-MB-231 and MDA-MB-436 cells) or 10% (v/v) FBS-containing medium supplemented with 10 ng/mL of human EGF (PrepoTech®, cat #AF-100-15) (for SkBr3 cells) were used as chemo-attractants. Cells were allowed to invade through the membrane overnight. Membranes were then washed with PBS, fixed in methanol, and stained with crystal violet (0.23% v/v). Pictures were acquired under an Axiovert™ 40 CFL microscope (Zeiss®) equipped with a MRC camera (Zeiss®). Quantification was performed using the Image J software.

SkBr3 cells [8] = test: Cell invasion, Boyden chamber; type: cell-based, human; conditions: MitoQ 100 nM, 48 h
Description: as §4

MDA-MB-231 cells [9] = test: Cell invasion, Boyden chamber; type: cell-based, human; conditions: MitoQ 100 nM, 48 h
Description: as §4

[10] = test system: MDA-MB-231 human breast cancer cells; test: Mitochondrial superoxide, EPR with MitoTEMPO-H ±PEG-SOD2; type: cell-based; conditions: MitoQ 100 nM, 48 h
Description: Mitochondrial superoxide levels were determined using electron paramagnetic resonance (EPR) with MitoTEMPO-H as a specific mitochondrial superoxide probe ±PEG-SOD2 to specifically assign signals to mitochondrial superoxide. EPR measurements were performed using a Bruker EMX-Plus spectrometer, operating in X-band (9.85 GHz) and equipped with a PremiumX ultra low noise microwave bridge and a SHQ high sensitivity resonator. Typical settings were: microwave power: 20 mW; attenuation: 10 dB; modulation frequency: 100 kHz; modulation amplitude: 0.1 mT; time constant: 20.48 ms; conversion time: 22.58 ms; sweep width: 0.15 mT. Briefly, MDA-MB-231, SkBr3, MCF10A or MDA-MB-436 cells were treated ±MitoQ for 48 h, harvested and resuspended in PBS at 2×10^6 cells/mL. The experimental mixture was prepared with cell suspension, 1 mM DTPA and 150 μM MitoTEMPO-H. It was then aspirated into a gas-permeable polytetrafluoroethylene (PTFE) tubing that was placed in a quartz tube opened at both ends. The tube was directly inserted inside the EPR cavity that was heated at 310° K with air during all experiments. […] Net superoxide production was calculated by subtracting the double integration values of the […] with PEG-SOD2 to the control value at timepoint 15 min.

COC1=C(OC)C(=O)C(CCCCCCCCCC[P+](c2ccccc2)(c2ccccc2)c2ccccc2)=C(C)C1=O [MitoQ]
clonogenicity in Petri dishes allowing adhesion (SkBr3 cells [1]): largely inhibited | clonogenicity in Petri dishes allowing adhesion (MDA-MB-231 cells [2]): largely inhibited | basal, maximal and ATP-linked oxygen consumption rates (OCRs) [3]: decreased | clonogenicity in suspension on soft agar (SkBr3 cells [4]): completely abrogated | clonogenicity in suspension on soft agar (MDA-MB-231 cells [5]): completely abrogated | cytostatic/cytotoxic effects of doxorubicin, epirubicin, 5-fluorouracil (5-FU), cisplatin, paclitaxel and gemcitabine (SkBr3 cells [6]): did not alter | cytostatic/cytotoxic effects of doxorubicin, epirubicin, 5-fluorouracil (5-FU), cisplatin, paclitaxel and gemcitabine (MDA-MB-231 cells [7]): did not alter | cell invasion (MDA-MB-436 cells): inhibited | invasive capability (SkBr3 cells [8]): highly significantly reduced | invasive capability (MDA-MB-231 cells [9]): highly significantly reduced | mitochondrial superoxide and mitochondrial H2O2 production [10]: lower
